The text below walks through data of ChEMBL document CHEMBL4177524, “Discovery of hepatitis B virus capsid assembly inhibitors leading to a heteroaryldihydropyrimidine based clinical candidate (GLS4)” (Bioorg Med Chem, 2017).

Data set [1] in a line: Cytotoxicity in human HepG2.215 cells assessed as reduction in cell viability after 5 days by CCK8 assay. It counts as cell-based, HepG2 2.2.15. The note with it: HepG2.2.15 cells. For orientation: Formazan colour is commonly taken as a measure of viable cells.
Data set [2] has as its target Core antigen (Hepatitis B virus) (UniProt Q03732). Put plainly: Inhibition of hepatitis B virus capsid assembly infected in human HepG2.215 cells assessed as reduction in viral DNA replication measured on day 7 by real time PCR analysis. It counts as cell-based. (In qPCR the cycle at which signal appears reflects the starting amount.)
Data set [3] has as its system Hepatitis B virus. The experiment in a line: Antiviral activity against lamivudine-resistant wild type hepatitis B virus infected in human Huh7 cells assessed as reduction in intracellular DNA levels measured on day 7 by real-time PCR analysis. It is filed as functional, organism-based. Conditions: Huh-7, 168 h.
Data set [4] deals with Hepatitis B virus. Put plainly: Antiviral activity against lamivudine-resistant hepatitis B virus harboring reverse transcriptase M204I mutant infected in human Huh7 cells assessed as reduction in intracellular DNA levels measured on day 7 by real-time PCR analysis. It counts as functional, organism-based. The note with it: Huh-7, 168 h.
Data set [5] has as its system Hepatitis B virus. Put plainly: Antiviral activity against lamivudine-resistant hepatitis B virus harboring reverse transcriptase M204I/V173L double mutant infected in human Huh7 cells assessed as reduction in intracellular DNA levels measured on day 7 by real-time PCR analysis. It counts as functional, organism-based. Conditions: Huh-7, 168 h.
For data set [6], the system named is Hepatitis B virus. Put plainly: Antiviral activity against lamivudine-resistant wild type hepatitis B virus infected in human Huh7 cells assessed as reduction in secreted DNA levels measured on day 7 by real-time PCR analysis. It counts as functional, organism-based. Conditions: Huh-7, 168 h.
In data set [7] the test system is Hepatitis B virus. The experiment in a line: Antiviral activity against lamivudine-resistant hepatitis B virus harboring reverse transcriptase M204I mutant infected in human Huh7 cells assessed as reduction in secreted DNA levels measured on day 7 by real-time PCR analysis. It counts as functional, organism-based. Conditions: Huh-7, 168 h.
The subject of data set [8] is Hepatitis B virus. Put plainly: Antiviral activity against lamivudine-resistant hepatitis B virus harboring reverse transcriptase M204I/V173L double mutant infected in human Huh7 cells assessed as reduction in secreted DNA levels measured on day 7 by real-time PCR analysis. It is filed as functional, organism-based. Conditions: Huh-7, 168 h.
In data set [9] the test system is Hepatitis B virus. The experiment in a line: Antiviral activity against hepatitis B virus infected in human HepG2.215 cells assessed as reduction in viral DNA replication measured on day 7 by real time PCR analysis. The note with it: HepG2.2.15, 168 h. It counts as functional, organism-based.

Core antigen (Hepatitis B virus), sequence (Q03732 as listed by the source): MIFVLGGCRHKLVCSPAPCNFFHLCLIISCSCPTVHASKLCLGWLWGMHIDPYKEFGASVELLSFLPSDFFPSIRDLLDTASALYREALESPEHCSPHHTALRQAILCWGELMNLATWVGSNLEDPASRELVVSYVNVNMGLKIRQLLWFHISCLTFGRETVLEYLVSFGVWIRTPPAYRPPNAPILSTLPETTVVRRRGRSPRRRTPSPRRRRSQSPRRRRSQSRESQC

Regarding `C[C@H](Cn1cnc2c(N)ncnc21)OCP(=O)(O)O` [TENOFOVIR ANHYDROUS], the 50% cytotoxic concentration (CC50) at 120 h in data set [1] stood at 399 µM.

For the compound `COC(=O)C1=C(C)NC(c2ncc(F)cc2F)=N[C@H]1c1ccc(F)cc1Cl`, the EC90 in data set [2] worked out at 0.102 µM.

Turning to `Nc1ccn([C@@H]2CS[C@H](CO)O2)c(=O)n1` [LAMIVUDINE], the CC50 at 120 h in data set [1] turned out to be 1020 µM. Besides, the EC50 with Hepatitis B virus [3] is 0.237 µM; in the data set on Hepatitis B virus [4], over 20 µM; with Hepatitis B virus [5], over 20 µM; in the data set on Hepatitis B virus [6], 0.055 µM; with Hepatitis B virus [7], over 20 µM; in the data set with Hepatitis B virus [8] it was over 20 µM. In addition, the EC50 with Hepatitis B virus [9] worked out at 0.1 µM. Also, the EC90 in the data set with Hepatitis B virus [9] was 2 µM.

By CC50 is commonly meant the concentration giving 50% cytotoxicity. A word on the EC90: it is the concentration needed for an effect of 90%. A word on the EC50: it is the concentration needed to bring the measured effect to its halfway point.
